{
  "source": "patent US6060241A",
  "about": "(priority 1997, dated 2000)",
  "key": {"[1]": {"target": "T1, Hp 3-oxoacid CoA-transferase (Helicobacter pylori, UniProt P56006+P56007)", "T1 construct": "second column endogenous enzyme in H. pylori lysate", "T1 sequence (P56006 whole entry)": "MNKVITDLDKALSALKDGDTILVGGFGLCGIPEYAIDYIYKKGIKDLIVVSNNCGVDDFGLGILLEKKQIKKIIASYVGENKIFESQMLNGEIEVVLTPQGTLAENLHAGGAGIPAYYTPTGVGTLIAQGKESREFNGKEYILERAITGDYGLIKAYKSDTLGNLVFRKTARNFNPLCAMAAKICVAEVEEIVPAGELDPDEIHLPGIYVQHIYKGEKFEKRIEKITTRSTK", "T1 sequence (P56007 whole entry)": "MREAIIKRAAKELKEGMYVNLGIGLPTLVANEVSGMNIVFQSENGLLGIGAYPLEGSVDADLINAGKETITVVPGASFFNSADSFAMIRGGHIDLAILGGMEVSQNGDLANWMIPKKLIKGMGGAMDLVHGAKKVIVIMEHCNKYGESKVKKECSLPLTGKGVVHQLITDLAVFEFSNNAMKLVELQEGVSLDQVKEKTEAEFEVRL", "experiment": "3-oxoacid CoA transferase activity endogenous in H. pylori lysates, in the presence of inhibitors", "assay_type": "biochemical", "conditions": "substances (50 nM); endogenous enzyme in H. pylori lysate; none = 25 ± 1", "description": "(§1) Activity was measured by monitoring the increase in A310 corresponding to the formation of acetoacetyl-CoA, as previously described (Howard et al., 1986). The assay contained 67 mM acetoacetate (Aldrich), 300 μM succinyl-CoA and 15 mM MgCl2 in 50 mM Tris-HCl pH 9.1. Under the experiment conditions, ε=7,800 M^-1 cm^-1.\n(§2) The activity assay was performed as described in Example 8, using H. pylori cell lysates.\n(§3) The activity assay was performed as described in Example 8 in the presence of the indicated inhibitors. The results are presented below in Table 6"}, "[2]": {"target": "T1, Hp 3-oxoacid CoA-transferase", "experiment": "3-oxoacid CoA transferase activity reconstituted in E. coli, in the presence of inhibitors", "assay_type": "biochemical", "conditions": "for Specific activity (mU/mg ± SD), 3-oxoacid CoA transferase, E. coli transformed with pCOA-t: substances (50 nM), lysate of E. coli transformed with pCoA-t, none = 2255 ± 7; for inhibition of Hp CoA-transferase (in words): statement that refers to Example 11", "description": "For 3-oxoadipate-CoA and 3-oxoacid CoA-transferase assays (FIGS. 7A, 7B, and 7C), E. coli cells transformed with pCoAT, which contains A^73 TGAA-TATAG^1394 of SEQ ID NO.:1 or with pUrea a plasmid containing the gene for urease (Labigne et al., J. Bacteriol. 173:1920-1931 (1991)) as a negative control, were washed once with M9 salts minimal medium (Molecular Cloning, a laboratory manual, Sambrook, Fritsch and Maniatis, second edition), pellets were stored at -20° C. until just prior to disruption. Thawed cell pellets were resuspended in 1 ml 50 mM phosphate buffer (pH 6.8), 1 mM dithiothreitol (Merck). Cell suspensions were disrupted by sonication and cellular debris removed by centrifugation. For butyrate-acetoacetate-CoA-transferase assays, the buffer used for cell wash and pellets resuspension was: 50 mM MOPS (pH 7.0), 0.5 M (NH4)2SO4, 20% (v/v) glycerol, 1 mM EDTA. Protein concentration in cellular extracts was determined by Bradford's method (1976) using γ globulin as standard (Bio-Rad) and activity expressed in U/mg of protein.\nas §1, §3"}, "[3]": {"target": "3 oxo acid CoA-transferase (Helicobacter pylori, UniProt P56006+P56007)", "sequence (P56007 whole entry)": "as above", "sequence (P56006 whole entry)": "as the sequence (P56006 whole entry) above", "experiment": "Reverse reaction of CoA-transferase, disappearance of acetoacetyl CoA at 310 nm", "assay_type": "biochemical", "conditions": "Hp 69A + 2 mM iodoacetamide; Hp 69A alone = 227 ± 4", "description": "As described above, CoA-transferase also catalyzes the reverse reaction, acetoacetyl CoA+succinate→acetoacetate+succinyl CoA. This additional 3-oxoacid CoA-transferase activity is examined in transformed E. coli and H. pylori by measuring the disappearance of acetoacetyl CoA at 310 nm."}, "[4]": {"target": "T2, acetoacetyl CoA thiolase (Helicobacter pylori, UniProt O25399)", "T2 construct": "mouse-adapted P49 used for mutants", "T2 sequence (O25399 entry or part of it)": "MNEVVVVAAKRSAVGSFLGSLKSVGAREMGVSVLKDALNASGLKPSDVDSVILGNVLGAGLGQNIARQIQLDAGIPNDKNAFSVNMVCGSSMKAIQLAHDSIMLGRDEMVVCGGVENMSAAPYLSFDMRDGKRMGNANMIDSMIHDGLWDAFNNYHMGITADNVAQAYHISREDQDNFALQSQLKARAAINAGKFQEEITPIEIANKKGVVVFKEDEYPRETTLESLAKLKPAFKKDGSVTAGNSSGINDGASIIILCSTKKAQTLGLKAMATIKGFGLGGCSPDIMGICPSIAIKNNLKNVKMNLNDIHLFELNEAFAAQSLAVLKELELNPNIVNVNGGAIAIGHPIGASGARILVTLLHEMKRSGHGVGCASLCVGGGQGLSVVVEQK", "experiment": "biochemical", "assay_type": "biochemical", "description": "as §1, §2\nThe only CoA-transferase activity detected in H. pylori lysates was the one leading to the formation of acetoacetyl CoA from succinyl CoA and acetoacetate in the presence of Mg^2+."}, "[5]": {"target": "mammalian CoA-transferase (Homo sapiens, UniProt P55809)", "sequence (P55809 40-520)": "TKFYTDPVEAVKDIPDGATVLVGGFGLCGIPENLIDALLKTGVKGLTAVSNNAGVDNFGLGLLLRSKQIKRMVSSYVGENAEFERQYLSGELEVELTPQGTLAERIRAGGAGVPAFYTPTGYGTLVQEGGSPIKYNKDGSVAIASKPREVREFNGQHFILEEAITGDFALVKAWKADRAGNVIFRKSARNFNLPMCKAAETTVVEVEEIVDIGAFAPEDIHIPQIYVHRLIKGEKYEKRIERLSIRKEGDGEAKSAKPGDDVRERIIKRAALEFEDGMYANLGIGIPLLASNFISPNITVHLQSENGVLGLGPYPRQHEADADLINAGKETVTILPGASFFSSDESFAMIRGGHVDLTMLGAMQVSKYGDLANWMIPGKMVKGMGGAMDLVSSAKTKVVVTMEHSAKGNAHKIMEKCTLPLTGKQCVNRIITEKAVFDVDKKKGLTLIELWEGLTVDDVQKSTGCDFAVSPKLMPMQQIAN", "experiment": "Effect on the mammalian CoA-transferase", "conditions": "statement that refers to Example 11; no mammalian data printed"}},
  "data": [
    {"smiles": "O=C(O)CC(=O)O", "note": "[disodium malonate]", "values": [
      {"measurement": "Specific activity (mU/mg ± SD), 3-oxoacid CoA transferase, H pytori", "setting": "[1]", "value": "27 ± 4", "unit": "mU/mg"},
      {"measurement": "Specific activity (mU/mg ± SD), 3-oxoacid CoA transferase, E. coli transformed with pCOA-t", "setting": "[2]", "value": "1823 ± 162", "unit": "mU/mg"}
    ]},
    {"smiles": "N[C@@H](CC(=O)O)C(=O)[O-].[Na+]", "note": "[monosodium aspartate]", "values": [
      {"measurement": "Specific activity (mU/mg ± SD), 3-oxoacid CoA transferase, H pytori", "setting": "[1]", "value": "24 ± 1", "unit": "mU/mg"},
      {"measurement": "Specific activity (mU/mg ± SD), 3-oxoacid CoA transferase, E. coli transformed with pCOA-t", "setting": "[2]", "value": "1859 ± 151", "unit": "mU/mg"}
    ]},
    {"smiles": "NC(=O)CI", "note": "[iodoacetamide]", "values": [
      {"measurement": "Specific activity (mU/mg), reverse reaction", "setting": "[3]", "value": "257 ± 0", "unit": "mU/mg"},
      {"measurement": "CoA transferase specific activity", "setting": "[4]; 2 mM iodoacetamide, H. pylori lysate, 25±2 mU/mg without iodoacetamide", "value": "60±2", "unit": "mU/mg"},
      {"measurement": "fold induction at 2000 µM", "setting": "[4]; read-out: increase of CoA transferase specific activity", "value": 2.5}
    ]},
    {"smiles": "O=C(O)CCCC(=O)O", "note": "[glutaric acid]", "values": [
      {"measurement": "Specific activity (mU/mg ± SD), 3-oxoacid CoA transferase, H pytori", "setting": "[1]", "value": "16 ± 5", "unit": "mU/mg"},
      {"measurement": "Specific activity (mU/mg ± SD), 3-oxoacid CoA transferase, E. coli transformed with pCOA-t", "setting": "[2]", "value": "31 ± 7", "unit": "mU/mg"}
    ]},
    {"smiles": "O=C(O)CC(S)C(=O)O", "note": "(stereo not drawn) [mercapto succinic acid]", "values": [
      {"measurement": "inhibition of the mammalian homologue (in words)", "setting": "[5]", "value": "not the mammalian homologue"},
      {"measurement": "Specific activity (mU/mg ± SD), 3-oxoacid CoA transferase, H pytori", "setting": "[1]", "value": "2 ± 2", "unit": "mU/mg"},
      {"measurement": "inhibition of Hp CoA-transferase (in words)", "setting": "[2]", "value": "inhibit Hp CoA-transferase"},
      {"measurement": "Specific activity (mU/mg ± SD), 3-oxoacid CoA transferase, E. coli transformed with pCOA-t", "setting": "[2]", "value": "16 ± 13", "unit": "mU/mg"}
    ]},
    {"smiles": "COC(=O)CCC(=O)O", "note": "[methyl succinic ester]", "values": [
      {"measurement": "Specific activity (mU/mg ± SD), 3-oxoacid CoA transferase, H pytori", "setting": "[1]", "value": "14 ± 3", "unit": "mU/mg"},
      {"measurement": "Specific activity (mU/mg ± SD), 3-oxoacid CoA transferase, E. coli transformed with pCOA-t", "setting": "[2]", "value": "58 ± 49", "unit": "mU/mg"}
    ]},
    {"smiles": "CC(CC(=O)O)C(=O)O", "note": "(stereo not drawn) [methyl succinic acid]", "values": [
      {"measurement": "inhibition of the mammalian homologue (in words)", "setting": "[5]", "value": "not the mammalian homologue"},
      {"measurement": "Specific activity (mU/mg ± SD), 3-oxoacid CoA transferase, H pytori", "setting": "[1]", "value": "0 ± 1", "unit": "mU/mg"},
      {"measurement": "inhibition of Hp CoA-transferase (in words)", "setting": "[2]", "value": "inhibit Hp CoA-transferase"},
      {"measurement": "Specific activity (mU/mg ± SD), 3-oxoacid CoA transferase, E. coli transformed with pCOA-t", "setting": "[2]", "value": "67 ± 51", "unit": "mU/mg"}
    ]},
    {"smiles": "O=C(O)CC(O)C(=O)O", "note": "(stereo not drawn) [monosodium malate]", "values": [
      {"measurement": "Specific activity (mU/mg ± SD), 3-oxoacid CoA transferase, H pytori", "setting": "[1]", "value": "22 ± 8", "unit": "mU/mg"},
      {"measurement": "Specific activity (mU/mg ± SD), 3-oxoacid CoA transferase, E. coli transformed with pCOA-t", "setting": "[2]", "value": "131 ± 0", "unit": "mU/mg"}
    ]}
  ]
}
